Consider six compounds from patent US4812461A, “Imide derivatives and their use in the treatment psychosis” (Sumitomo Pharmaceuticals Company, Limited, priority 1986, dated 1989).

In series [1] the test system is climbing behavior induced by apomorphine. The series is described as follows: Anti-climbing behavior test (suppression of climbing behavior induced by apomorphine in mice). In kind it is in vivo, dd strain male mice. Conditions: for ED50: Mus musculus. The source says:
This activity was examined through the anti-climbing behavior test, i.e. the test for suppressing the climbing behavior induced by apomorphine in mice. A designated amount of the test compound was orally administered to several groups of dd strain male mice (bodyweight, 20 to 25 g; one group, 5 mice), and each of the animals was charged in an individual column cage of 12 cm in diameter and 14 cm in height having metal poles (each pole, 2 mm in diameter) vertically installed and arranged along the periphery with intervals of 1 cm. […]
0 All the paws were on the floor
1 Only forepaws seized the pole of the cage
2 All the paws seized the pole of the cage;
climbing behavior observed discontinu-
3 Continuous climbing behavior observed

Series [2] is described as follows: Extrapyramidal activity: catalepsy inducing activity test. It is filed as in vivo, dd strain male mice. Particulars: mouse, in vivo; oral; catalepsy checked 1 and 4 hours after administration; strained state over 30 seconds; mice. The method, then: (§1) A designated amount of the test compound was orally administered to dd strain male mice (bodyweight, 22 to 27 g), and 1 and 4 hours after the administration, catalepsy induction was checked according to the Wirth et al method. Thus, each of the animals was forced to hang its forepaws onto a metal pole of 2.5 mm in diameter horizontally situated at a height of 5 cm to keep in a strained state. The test was made with three repetitions, and the presence of at least one case in which the animal was kept in the strained state over a period of 30 seconds was deemed to have caused catalepsy.

The next series deals with catalepsy induction. The description is as above. It is filed as in vivo, dd strain male mice. Particulars: oral. The method, then:
as §1

The conditions of series [3]: cited from earlier work; for side effects on clinical use, in words: conventional neuroleptics.
The mark [4] stands for this setting: sc, subcutaneous, apomorphine 1.0 mg/kg s.c., mice, read-out: ED50, Subcutaneous administration (anti-climbing, neuroleptic activity).
[5] abbreviates: oral, after 1 hour, apomorphine 1.0 mg/kg s.c., mice, read-out: ED50, Oral administration After 1 hour (anti-climbing, neuroleptic activity).
The mark [6] stands for this setting: oral, after 4 hours, apomorphine 1.0 mg/kg s.c., mice, read-out: ED50, Oral administration After 4 hours (anti-climbing, neuroleptic activity).

Where two headings read alike, the source gives them in different places.

As for `O=C(CCCN1CCC(O)(c2ccc(Cl)cc2)CC1)c1ccc(F)cc1` [Haloperidol, 4-[4-(4-chlorophenyl)-4-hydroxy-1-piperidinyl]-1-(4-fluorophenyl)-1-butanone], the ED50 in series [1] (po, 1 h, read-out: ED50, Oral administration After 1 hour (anti-climbing, neuroleptic activity)) is 0.67 mg/kg; in series [1] (po, 4 h, read-out: ED50, Oral administration After 4 hours (anti-climbing, neuroleptic activity)), 0.44 mg/kg; in series [1] (sc, read-out: ED50, Subcutaneous administration (anti-climbing, neuroleptic activity)) it was 0.21 mg/kg; in series [2], 3 mg/kg. The “neuroleptic activity (anti-climbing activity), in words” value in series [1] (route not stated) is recorded as “significant neuroleptic activity”. In addition, the “extrapyramidal activity (catalepsy inducing activity), in words” value in the series on catalepsy induction is “considerably high level of extra-pyramidal activity”. Also, the “side effects on clinical use, in words” value in series [3] was “serious side effects such as catalepsy and hypotension”.

`O=C(c1ccc(F)cc1)C1CCN(CCCCN2C(=O)[C@@H]3[C@H](C2=O)[C@H]2C=C[C@@H]3C2)CC1` [Compound No. 5, N-[4-{4-(4-Fluorobenzoyl)piperidinyl}butyl]bicyclo[2.2.1]hept-5-ene-2,3-di-exo-carboximide]: the ED50 is < 1 mg/kg in series [1] (setting [4]), 1.3 mg/kg in series [1] (setting [5]), 2.2 mg/kg in series [1] (setting [6]) and 25 mg/kg in series [2].

On to `O=C(c1ccc(F)cc1)C1CCN(CCCCN2C(=O)[C@@H]3[C@H]4CC[C@H](C4)[C@@H]3C2=O)CC1` [Compound No. 1, N-[4-{4-(4-Fluorobenzoyl)piperidinyl}butyl]bicyclo[2.2.1]heptane-2,3-di-exo-carboximide], for which the ED50 in series [1] (setting [4]) is 0.12 mg/kg; in series [1] (setting [5]) it was 3.7 mg/kg; in series [1] (setting [6]) it was 21.8 mg/kg; in series [2], 25 to 50 mg/kg.

Consider `CN(C)CCCN1c2ccccc2Sc2ccc(Cl)cc21` [chlorpromazine, 2-chloro-10-(3-dimethylaminopropyl)phenothiazine], for which the “side effects on clinical use, in words” value in series [3] is “serious side effects such as catalepsy and hypotension”.

Regarding `O=C1CC2(CCCC2)CC(=O)N1CCCCN1CCN(c2nsc3ccccc23)CC1` [Tiaspiron, 8-[4-(3-benzisothiazolyl)-1-piperazinylbutyl]-8-azaspiro[4,5]decane-7,9-dione], the figures for the ED50 in series [1] (setting [4]), in series [1] (setting [5]) and in series [1] (setting [6]) were 0.23 mg/kg, 9.4 mg/kg and 61.5 mg/kg, respectively. Further, the “extrapyramidal side effects such as catalepsy inducing activity, in words” value in series [3] (in comparison with butyrophenone compounds such as haloperidol) is “alleviated in extrapyramidal side effects such as catalepsy inducing activity”.

With `O=C1[C@@H]2[C@H]3CC[C@H](C3)[C@@H]2C(=O)N1CCCCN1CCC(c2nsc3ccccc23)CC1` [Compound No. 2, N-[4-{4-(1,2-Benzisothiazol-3-yl)-1-piperidinyl}butyl]bicyclo[2.2.1]heptane-2,3-di-exo-carboximide], the ED50 in series [1] (setting [5]) is 3.5 mg/kg; in series [1] (setting [6]), 3.4 mg/kg; in series [2], 10 to 30 mg/kg.
